This note sets out measurements from US20160002273A1, “THIENO[3,2-D]PYRIMIDINE-6-CARBOXAMIDES AND ANALOGUES AS SIRTUIN MODULATORS” (GLAXOSMITHKLINE LLC, priority 2013, published 2016).

Each structure is given as a SMILES string. ≈ marks a conversion by molar mass, not a printed value. Where two headings read alike, the source gives them in different places. Bounds are passed on as bounds.

A short description of series [1]: Stability in human microsomes. The format is in vitro ADME.
Another series concerns the target T1, CYP 1A2 (Homo sapiens, UniProt P05177).
T1 sequence (P05177 1-516): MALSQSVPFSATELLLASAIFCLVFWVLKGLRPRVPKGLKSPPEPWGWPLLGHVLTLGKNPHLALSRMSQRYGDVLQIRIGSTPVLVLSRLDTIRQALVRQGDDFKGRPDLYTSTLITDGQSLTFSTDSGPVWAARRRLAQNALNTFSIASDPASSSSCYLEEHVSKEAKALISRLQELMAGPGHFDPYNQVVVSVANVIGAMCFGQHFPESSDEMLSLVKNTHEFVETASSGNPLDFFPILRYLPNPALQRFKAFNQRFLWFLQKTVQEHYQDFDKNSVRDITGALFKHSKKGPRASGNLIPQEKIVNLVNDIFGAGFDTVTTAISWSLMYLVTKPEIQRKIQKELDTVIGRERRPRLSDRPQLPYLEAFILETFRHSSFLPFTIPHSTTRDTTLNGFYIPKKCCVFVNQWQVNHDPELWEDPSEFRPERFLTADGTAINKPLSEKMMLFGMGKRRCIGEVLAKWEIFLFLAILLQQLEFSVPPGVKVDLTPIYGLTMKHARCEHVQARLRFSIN
The series can be described thus: CYP inhibition 1A2. The format is in vitro ADME.

For another series, the target named is CYP 2C19 (Homo sapiens, UniProt P33261). The series can be described thus: CYP inhibition 2C19. The format is in vitro ADME.
Chain of CYP 2C19 (P33261 whole entry): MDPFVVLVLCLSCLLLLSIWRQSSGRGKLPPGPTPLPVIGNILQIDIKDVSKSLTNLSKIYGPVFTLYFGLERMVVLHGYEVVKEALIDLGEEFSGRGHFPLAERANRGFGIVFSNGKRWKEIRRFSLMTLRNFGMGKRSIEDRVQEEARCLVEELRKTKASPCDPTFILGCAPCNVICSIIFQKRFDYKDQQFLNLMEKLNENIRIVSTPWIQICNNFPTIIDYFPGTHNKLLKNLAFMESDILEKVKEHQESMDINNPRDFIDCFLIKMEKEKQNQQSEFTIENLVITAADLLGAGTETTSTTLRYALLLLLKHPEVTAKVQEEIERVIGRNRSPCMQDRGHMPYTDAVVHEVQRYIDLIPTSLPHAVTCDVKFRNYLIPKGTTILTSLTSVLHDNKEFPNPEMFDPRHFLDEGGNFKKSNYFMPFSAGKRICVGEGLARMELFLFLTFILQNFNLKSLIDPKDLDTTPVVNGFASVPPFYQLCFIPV
Series [2] can be described thus: Kinetic solubility by chemi-luminescent nitrogen detection (CLND). Format: physicochemical. Conditions: aqueous buffer, kinetic from dmso stock, DMSO stock incubated 1 hr in phosphate buffered saline pH 7.4, filtered.
The nature of series [3]: HPLC based lipophilicity assay (CHI LogD). Conditions: CHI values by reverse phase HPLC transformed to a LogD scale. The format is physicochemical.
Another series addresses T2, SIRT1 (Homo sapiens, UniProt Q96EB6).
T2 sequence (Q96EB6 1-747): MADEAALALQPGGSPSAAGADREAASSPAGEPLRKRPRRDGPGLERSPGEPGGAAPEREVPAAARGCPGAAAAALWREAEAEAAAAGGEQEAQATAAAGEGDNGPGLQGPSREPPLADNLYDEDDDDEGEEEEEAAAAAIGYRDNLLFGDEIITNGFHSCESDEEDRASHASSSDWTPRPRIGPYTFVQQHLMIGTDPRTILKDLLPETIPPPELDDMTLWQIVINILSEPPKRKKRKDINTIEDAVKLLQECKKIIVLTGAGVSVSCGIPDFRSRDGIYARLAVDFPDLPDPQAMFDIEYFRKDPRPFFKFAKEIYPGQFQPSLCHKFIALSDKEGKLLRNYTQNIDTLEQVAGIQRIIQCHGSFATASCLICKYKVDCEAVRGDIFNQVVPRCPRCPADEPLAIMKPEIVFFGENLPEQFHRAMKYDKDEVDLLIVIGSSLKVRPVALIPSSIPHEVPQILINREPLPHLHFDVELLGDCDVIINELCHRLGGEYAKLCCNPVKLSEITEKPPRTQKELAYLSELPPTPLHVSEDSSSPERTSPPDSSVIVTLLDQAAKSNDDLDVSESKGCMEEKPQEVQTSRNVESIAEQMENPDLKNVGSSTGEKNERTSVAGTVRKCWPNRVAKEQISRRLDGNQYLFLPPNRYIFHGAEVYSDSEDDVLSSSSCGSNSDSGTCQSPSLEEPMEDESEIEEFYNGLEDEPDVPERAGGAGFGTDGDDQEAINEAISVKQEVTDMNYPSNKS
The series can be described thus: SIRT1 deacetylation of Trp 5-mer peptide, OAADPr mass spec assay.

A short description of series [4]: Stability in mouse microsomes. Format: in vitro ADME.
Series [5] deals with sirtuin mediated deacetylation of acetyl-p65. The series can be described thus: Acetyl-p65 assay in U2OS cells (AlphaScreen). Particulars: FIG. 6. The format is cell-based. Here is the method: In certain embodiments, U2OS cells were counted by hemocytometer and diluted to a concentration of 1.5×10^5 cell/ml. BacMam p65 and BacMam p300-HAT viruses were added to the diluted cells at 1% and 1% (vol/vol). 40 μl aliquots of the cell suspensions containing the viruses were plated onto a 384 well plate with a multi-drop dispenser. After 7 hours, a 2-fold serial dilution of Compounds 25, 28 and Compound 4, hereafter referred to as the test compounds, was carried out in DMSO. The test compounds were subsequently diluted with medium (20-fold) in an intermediate compound plate, and 4 μL of each test compound was transferred by a liquid handler from the intermediate plate to a cell plate. 24 hours post viral transduction, the medium in the cell plate was removed by inverting and flicking the plate, and blotting the plate with paper towels. 30 μl of lysis buffer (25 mM HEPES pH 7.4, 0.5% Triton X-100, 1 mg/ml Dextran 500, 0.1% BSA, 300 mM NaCl, 2 mM MgCl2, 1×protease inhibitor cocktail) was added to each well to lyse the cells. After incubation of the cells with lysis buffer for 30 minutes at room temp, 10 μl and 3 μl aliquots of the cell lysates were transferred to assay plates, and the assay plate containing 3 μl aliquot of cell lysates was diluted with an additional 7 μl of lysis buffer to obtain a final volume of 10 μl. Acetyl-p65 and total p65 protein in cell lysates were measured using the AlphaScreen assay format (PerkinElmer). The antibodies used to detect acetyl-p65 protein were biotinylated anti-HA antibody (Roche, 12158167001) and anti-acetylated K310-p65 antibody (Abcam, ab19870). The antibodies used to detect total p65 protein were biotinylated anti-HA antibody (Roche, 12158167001) and anti-p65 antibody (Santa Cruz, sc109). […] After incubating the plates for another 2 hrs in the dark, the plates were read by a PHERAstar microplate reader. […]
For orientation: In Alpha technology, singlet oxygen from a donor bead excites a nearby acceptor bead.

The target in a further series is T3, SIRT2 (Homo sapiens, UniProt Q8IXJ6).
T3 sequence (Q8IXJ6 1-389): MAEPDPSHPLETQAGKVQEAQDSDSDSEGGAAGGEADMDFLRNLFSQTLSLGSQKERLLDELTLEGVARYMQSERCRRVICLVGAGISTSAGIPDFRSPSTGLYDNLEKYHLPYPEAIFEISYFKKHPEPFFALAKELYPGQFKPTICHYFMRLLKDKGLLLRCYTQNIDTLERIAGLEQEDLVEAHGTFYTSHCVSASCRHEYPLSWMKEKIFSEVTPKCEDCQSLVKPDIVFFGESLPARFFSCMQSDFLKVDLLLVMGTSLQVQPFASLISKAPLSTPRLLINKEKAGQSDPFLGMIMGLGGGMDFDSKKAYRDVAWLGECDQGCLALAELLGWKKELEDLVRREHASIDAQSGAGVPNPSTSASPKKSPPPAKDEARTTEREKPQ
The series can be described thus: SIRT2 deacetylation of Trp 5-mer peptide, OAADPr mass spec assay. The format is biochemical. Also noted: His-SIRT2(1-389).

For the next series, the target named is CYP 3A4 (Homo sapiens, UniProt P08684). As to the kind of experiment: CYP inhibition 3A4. The format is in vitro ADME.
Chain of CYP 3A4 (P08684 whole entry): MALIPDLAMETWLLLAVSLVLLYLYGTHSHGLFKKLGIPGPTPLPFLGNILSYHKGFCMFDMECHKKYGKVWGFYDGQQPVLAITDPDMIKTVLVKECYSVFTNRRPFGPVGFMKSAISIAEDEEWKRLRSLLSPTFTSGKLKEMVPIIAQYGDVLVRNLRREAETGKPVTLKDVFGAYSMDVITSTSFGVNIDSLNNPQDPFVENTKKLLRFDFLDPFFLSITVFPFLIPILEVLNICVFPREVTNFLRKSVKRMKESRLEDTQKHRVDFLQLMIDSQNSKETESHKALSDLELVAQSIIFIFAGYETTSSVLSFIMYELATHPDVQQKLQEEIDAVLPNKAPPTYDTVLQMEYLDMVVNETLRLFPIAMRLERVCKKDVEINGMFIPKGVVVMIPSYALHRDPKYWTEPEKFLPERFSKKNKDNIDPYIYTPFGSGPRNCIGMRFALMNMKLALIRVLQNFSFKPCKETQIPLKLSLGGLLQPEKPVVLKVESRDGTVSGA
Another series addresses CYP 2D6 (Homo sapiens, UniProt P10635). As to the kind of experiment: CYP inhibition 2D6. Format: in vitro ADME.

One may read the solubility as how much of the substance goes into solution per volume. Usually LogD stands for lipophilicity at a set pH, counting ionised and neutral species. A higher LogD goes with higher lipophilicity.

Chain of CYP 2D6 (P10635 whole entry): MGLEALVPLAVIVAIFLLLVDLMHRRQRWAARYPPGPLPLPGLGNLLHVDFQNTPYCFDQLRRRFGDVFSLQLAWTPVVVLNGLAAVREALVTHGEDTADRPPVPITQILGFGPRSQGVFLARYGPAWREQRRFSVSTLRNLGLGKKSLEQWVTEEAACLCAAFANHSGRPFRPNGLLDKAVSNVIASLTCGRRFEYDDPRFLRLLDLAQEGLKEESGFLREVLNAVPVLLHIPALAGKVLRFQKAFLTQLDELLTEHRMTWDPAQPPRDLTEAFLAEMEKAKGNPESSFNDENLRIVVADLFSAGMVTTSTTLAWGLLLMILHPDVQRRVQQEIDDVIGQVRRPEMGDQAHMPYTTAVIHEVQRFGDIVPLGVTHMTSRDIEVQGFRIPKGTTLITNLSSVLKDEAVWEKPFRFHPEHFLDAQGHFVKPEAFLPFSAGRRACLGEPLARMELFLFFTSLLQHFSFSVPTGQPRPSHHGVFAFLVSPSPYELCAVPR
Method for SIRT1: All assays were performed at room temperature in reaction buffer (50 mM HEPES, pH 7.5, 150 mM NaCl, 1 mM DTT, 0.05% BSA). […] To prepare the assays for analysis, 20 μL of reaction volume was mixed in 80 μL of 50:50 acetonitrile:methanol mixture. […] Peak data was integrated using RapidFire Integrator software (Agilent, Santa Clara, Calif.).

Regarding `CC(C)(C)C(=O)NCCC1CCN(c2ncnc3cc(C(N)=O)sc23)CC1` [Compound 28, 4-(4-(2-pivalamidoethyl)piperidin-1-yl)thieno[3,2-d]pyrimidine-6-carboxamide], the “Human CLint” value in series [1] came out at 15.8 µL/min/mg. Moreover, the “CYP 1A2” value at CYP 1A2 was more than 50 µM. For the same compound, at CYP 2C19, the “CYP 2C19” value is more than 50 µM. The compound also gave a solubility at 1 hr in series [2] of 297 µM (≈ 116 µg/mL). Besides, the log distribution coefficient (LogD) in [3] came out at 2.73. Besides, the IC50 at SIRT1 (Trp SIRT1_IC50, Trp 5-mer peptide, class symbols) is less than 1 µM; on SIRT1 (read-out: IC50 (μM) SIRT1, Trp 5-mer peptide and NAD at KM, mean of at least three determinations), 0.015 µM; on SIRT2 (Trp 5-mer peptide and NAD at KM, mean of at least three determinations, read-out: IC50 (μM) SIRT2), 0.01 µM; on SIRT2 (Trp 5-mer peptide, class symbols, read-out: Trp SIRT2_IC50), less than 1 µM. For the same compound, the “Mouse CLint” value in series [4] was found to be 12.7 µL/min/mg. The “inhibition of sirtuin mediated deacetylation of acetyl-p65” value in [5] is recorded as “inhibit”. The “CYP 3A4” value on CYP 3A4 is more than 50 µM. Also, on CYP 2D6, the “CYP 2D6” value was more than 50 µM.
